The results in this text go back to patent publication US6211158A, “Desazapurine-nucleotide derivatives, processes for the preparation thereof, pharmaceutical compositions containing them and the use thereof for nucleic acid sequencing and as antiviral agents” (Roche Diagnostics GmbH, priority 1987, dated 2001).

Series [1] can be described thus: Stability of the N-glycosidic bond under acidic conditions, UV-absorbance as a function of time (Example 30). The class given is physicochemical. Further details: key to stability towards hydrolysis (classified): classified as stable, when no hydrolysis occurred within the hydrolysis time of the corresponding purine-derivatives. Particulars: for half-life: read-out: half life [t(1/2)] of hydrolysis. The method, then: The determination of the stability of the N-glycosidic bond was carried out under acidic conditions by measuring the UV-absorbance as a function of time. The compounds were classified as stable, when no hydrolysis occurred within the hydrolysis time of the corresponding purine-derivatives.
Table of kinetic data with respect to hydrolysis of […]

Series [2] can be described thus: Hydrolysis of the N-glycosidic bond in hydrochloric acid at 25° C., UV absorption at 258 nm (Example 29). The note with it: for half-life: read-out: half life time T/2 of hydrolysis. The class given is physicochemical. The method, then:
The stability of the N-glycosidic bond of 2',3'-didesoxynucleosides is bound up with the antiviral activity.
The hydrolysis of the bond was investigated at 25° C. in three different concentrations of hydrochloric acid. For this purpose, the UV absorption (Et) was measured at 258 nm. Via the absorption/time curve, there were determined the velocity constants of the hydrolysis (k) and the half life times (T/2) on the basis of the following equation:
k=1/t×ln(Eo -Eoo)/(Et -Eoo)
Eo being the absorption at time t=0 and Eoo being the absorption after complete termination of the reaction.
There were compared 2',3'-dideoxyadenosine (a) and 6-amino-8-aza-7-deaza-2',3'-dideoxy-9-β-D-ribofuranosylpurine (b) at 25° C.

Molecules are shown by their SMILES.

Consider `Nc1nc2c(ccn2[C@H]2CC[C@@H](CO)O2)c(=O)[nH]1` [c^7 ddG, 2-Amino-7-deaza-2',3'-dideoxy-9-β-D-ribofuranosylpurine-6-one], for which the “stability towards hydrolysis (classified)” value (from here on “stability towards hydrolysis”) in series [1] (0.01 N HCl), in series [1] (0.1 N HCl) and in series [1] (1 N HCl) was “stable” in each case.
`Nc1nc2c(cnn2[C@H]2CC[C@@H](CO)O2)c(=O)[nH]1` [c^7 z^8 ddG, 2-Amino-(2',3'-dideoxy-β-D-glyceropentofuranosyl)-1H-pyrazolo[3,4-d]pyrimidin-4-one]: the half-life in series [1] (0.01 n hcl) is 135 min.
For the compound `Nc1ncnc2c1ccn2[C@H]1CC[C@@H](CO)O1` [c^7 ddA, 4-Amino-7-(2',3'-dideoxy-β-D-glyceropentofuranosyl)-7H-pyrrolo[2,3-d]pyrimidine], the “stability towards hydrolysis” value in series [1] (0.01 N HCl), in series [1] (0.1 N HCl) and in series [1] (1 N HCl) was “stable” throughout.
In the case of `Nc1nccc2c1ccn2[C@H]1CC[C@@H](CO)O1` [c^3 c^7 ddA, 6-amino-3,7-dideaza-2',3'-dideoxy-9-β-D-ribofuranosylpurine], the “stability towards hydrolysis” value in series [1] (0.01 N HCl), in series [1] (0.1 N HCl) and in series [1] (1 N HCl) was “stable” throughout.
As for `Nc1nc2c(ncn2[C@H]2CC[C@@H](CO)O2)c(=O)[nH]1` [ddG, reference compound], the half-life in series [1] (0.01 n hcl) came to 37 min.
In the case of `Nc1ncnc2c1cnn2[C@H]1CC[C@@H](CO)O1` [c^7 z^8 ddA, 6-Amino-8-aza-7-deaza-2',3'-dideoxy-9-β-D-ribofuranosylpurine], the half-life in series [1] (0.01 n hcl) is 280 min; in series [1] (0.1 n hcl), 20.4 min; in series [2] (0.01 N HCl) it was 280 min; in series [2] (0.1 N HCl), 20.4 min; in series [2] (1 N HCl), 0.83 min. For the same compound, the “velocity constant of the hydrolysis k” value in series [2] (0.01 N HCl) is 0.0025 min⁻¹. For the same compound, the “times more stable than (a)” value in series [2] (compared with 2',3'-dideoxyadenosine (a), HCl) was “more than 10 times”.
As for `Nc1ncnc2c1ncn2[C@H]1CC[C@@H](CO)O1` [ddA, 2',3'-dideoxyadenosine, reference compound], the half-life in series [1] (0.01 n hcl) came to 31.5 min; in series [1] (0.1 n hcl) it was 1.9 min; in series [2] (0.01 N HCl), 31.5 min; in series [2] (0.1 N HCl), 1.9 min. Also, the “velocity constant of the hydrolysis k” value in series [2] (0.01 N HCl) was 0.022 min⁻¹.
